Source: patent US9394297B2, “Amides as pim inhibitors” (AMGEN INC., priority 2012, dated 2016)
Where two headings read alike, the source gives them in different places.

How the values were obtained:
[1] = target: Pim-2 (Homo sapiens (Human), UniProt Q9P1W9); assay: Pim enzyme assay (HTRF, 96-well), Pim-2; type: biochemical; settings: full length recombinant Pim-2, biotinylated-BAD (S112) peptide, 10-point curve, 45 min RT, read-out: Pim-2 IC50 IP
Procedure, shortened: (§1)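 HTRF detection of biotinylated BAD (S112) phosphorylation by full-length recombinant His-tagged Pim-1 or Pim-2 in 60 mM Hepes pH 7.0, 0.05% BSA, 2 mM DTT at 22 °C: 2 h for Pim-1, 45 min for Pim-2. Stopped with EDTA; IC50 from 4-parameter logistic fit of percent of control.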

[2] = target: Pim-1 (Homo sapiens (Human), UniProt P11309); assay: Pim enzyme assay (HTRF, 96-well), Pim-1; type: biochemical; settings: full length recombinant Pim-1, biotinylated-BAD (S112) peptide, 10-point curve, 2 h RT, read-out: Pim-1 IC50 IP
Chain of Pim-1 (P11309 whole entry): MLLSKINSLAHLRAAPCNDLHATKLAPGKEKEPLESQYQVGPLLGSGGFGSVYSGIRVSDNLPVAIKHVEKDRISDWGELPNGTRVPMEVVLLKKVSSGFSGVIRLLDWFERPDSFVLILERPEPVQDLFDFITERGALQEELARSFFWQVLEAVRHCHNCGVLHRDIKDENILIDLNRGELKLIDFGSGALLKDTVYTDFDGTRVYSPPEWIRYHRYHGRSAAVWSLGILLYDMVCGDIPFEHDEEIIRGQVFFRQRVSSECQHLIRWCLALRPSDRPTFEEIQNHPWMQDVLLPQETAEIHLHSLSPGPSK
Procedure, shortened: as §1

[3] = test system: KMS-12-BM myeloma cell line; assay: Pim KMS-12 cell assay (phospho-BAD S112 / total BAD, MSD); settings: Homo sapiens, KMS-12-BM
[4] = read-out: KMS-12-BM IC50 IP, KMS-12-BM cells, phospho-BAD (S112) vs total BAD, 1 hour 50 min with compound

Chain of Pim-2 (Q9P1W9 whole entry): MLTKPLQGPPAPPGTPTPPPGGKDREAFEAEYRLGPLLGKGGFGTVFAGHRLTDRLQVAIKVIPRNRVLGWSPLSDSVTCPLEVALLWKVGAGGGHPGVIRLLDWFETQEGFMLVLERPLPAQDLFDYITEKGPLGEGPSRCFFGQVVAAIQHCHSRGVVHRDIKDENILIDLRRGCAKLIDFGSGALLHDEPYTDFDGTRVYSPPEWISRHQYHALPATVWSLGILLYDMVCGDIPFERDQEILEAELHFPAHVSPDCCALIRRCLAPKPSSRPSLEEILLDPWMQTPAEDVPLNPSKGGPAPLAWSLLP

## Cc1nc2cccc(-c3cc4c([nH]3)CCNC4=O)c2nc1NC1(C)COC1 [Example 197, 2-(2-methyl-3-((3-methyloxetan-3-yl)amino)quinoxalin-5-yl)-6,7-dihydro-1H-pyrrolo[3,2-c]pyridin-4(5H)-one]
[1]
  IC50: 5.7 nM
[2]
  IC50: 7.2 nM
[3]; [4]
  IC50: 511 nM

## O=C1NCCn2cc(-c3cccc4ccc(Nc5ccccc5)nc34)cc21 [Example 165, 7-(2-(phenylamino)quinolin-8-yl)-3,4-dihydropyrrolo[1,2-a]pyrazin-1(2H)-one]
[1]
  IC50: 17.9 nM
[2]
  IC50: 6.7 nM
[3]; [4]
  IC50: 3850 nM

## CN(c1ccccc1)c1cnc2cccc(-c3cc4c([nH]3)CCNC4=O)c2n1 [Example 188, 2-(3-(methyl(phenyl)amino)quinoxalin-5-yl)-6,7-dihydro-1H-pyrrolo[3,2-c]pyridin-4(5H)-one]
[1]
  IC50: 4.4 nM
[2]
  IC50: 2.8 nM
[3]; read-out: KMS-12-BM IC50 IP
  IC50: 1010 nM

## O=C1NCCc2[nH]c(-c3cccc4ccc(NC5CCCCC5)nc34)cc21 [Example 83, 2-(2-(cyclohexylamino)quinolin-8-yl)-6,7-dihydro-1H-pyrrolo[3,2-c]pyridin-4(5H)-one]
[1]
  IC50: 15 nM
[2]
  IC50: 2 nM
[3]; read-out: KMS-12-BM IC50 IP
  IC50: 2910 nM

## O=C1NCCc2[nH]c(-c3cccc4ccc(Oc5ccccc5Cl)nc34)cc21 [Example 103, 2-(2-(2-chlorophenoxy)quinolin-8-yl)-6,7-dihydro-1H-pyrrolo[3,2-c]pyridin-4(5H)-one]
[1]
  IC50: 18.1 nM
[2]
  IC50: 8.1 nM
[3]; read-out: KMS-12-BM IC50 IP
  IC50: 7730 nM

## O=C1NCCn2cc(-c3cccc4ccc(Nc5cccnc5)nc34)cc21 [Example 166, 7-(2-(pyridin-3-ylamino)quinolin-8-yl)-3,4-dihydropyrrolo[1,2-a]pyrazin-1(2H)-one]
[1]
  IC50: 2.2 nM
[2]
  IC50: 1.1 nM
[3]; [4]
  IC50: 4310 nM

## O=C1NCCc2[nH]c(-c3cccc4ccc(N[C@H]5CCCNC5)nc34)cc21 [Example 123, (S)-2-(2-(piperidin-3-ylamino)quinolin-8-yl)-6,7-dihydro-1H-pyrrolo[3,2-c]pyridin-4(5H)-one]
[1]
  IC50: 12 nM
[2]
  IC50: 1 nM
[3]; [4]
  IC50: 2510 nM

## O=c1[nH]ccc2[nH]c(-c3cccc4ccc(Nc5ccccc5Cl)nc34)cc12 [Example 107, 2-(2-((2-chlorophenyl)amino)quinolin-8-yl)-1H-pyrrolo[3,2-c]pyridin-4(5H)-one]
[1]
  IC50: 32.2 nM
[2]
  IC50: 5.2 nM
[3]; [4]
  IC50: 15600 nM

## Cc1nc2cccc(-c3cc4c([nH]3)CCNC4=O)c2nc1NC1COC1 [Example 196, 2-(2-methyl-3-(oxetan-3-ylamino)quinoxalin-5-yl)-6,7-dihydro-1H-pyrrolo[3,2-c]pyridin-4(5H)-one]
[1]
  IC50: 11.4 nM
[2]
  IC50: 23.8 nM
[3]; [4]
  IC50: 585 nM

## Cc1cccc(C)c1Nc1ccc2cccc(-c3cc4c([nH]3)CCNC4=O)c2n1 [Example 102, 2-(2-((2,6-dimethylphenyl)amino)quinolin-8-yl)-6,7-dihydro-1H-pyrrolo[3,2-c]pyridin-4(5H)-one]
[1]
  IC50: 73.9 nM
[2]
  IC50: 7.6 nM
[3]; read-out: KMS-12-BM IC50 IP
  IC50: 10400 nM

## O=C1NCCc2[nH]c(-c3cccc4ccc(Oc5c(F)cccc5Cl)nc34)cc21 [Example 9, 2-(2-(2-chloro-6-fluorophenoxy)quinolin-8-yl)-6,7-dihydro-1H-pyrrolo[3,2-c]pyridin-4(5H)-one]
[1]
  IC50: 8.6 nM
[2]
  IC50: 4.6 nM
[3]; [4]
  IC50: 6350 nM

## Cc1nc2cccc(-c3cc4c([nH]3)CCNC4=O)c2nc1NC(C)C [Example 192, 2-(3-(isopropylamino)-2-methylquinoxalin-5-yl)-6,7-dihydro-1H-pyrrolo[3,2-c]pyridin-4(5H)-one]
[1]
  IC50: 4.9 nM
[2]
  IC50: 7.5 nM
[3]; read-out: KMS-12-BM IC50 IP
  IC50: 270 nM

## CCN(c1ccccc1)c1cnc2cccc(-c3cc4c([nH]3)CCNC4=O)c2n1 [Example 186, 2-(3-(ethyl(phenyl)amino)quinoxalin-5-yl)-6,7-dihydro-1H-pyrrolo[3,2-c]pyridin-4(5H)-one]
[1]
  IC50: 4.3 nM
[2]
  IC50: 2.2 nM
[3]; [4]
  IC50: 1490 nM

## Cc1nc2cccc(-c3cc4c([nH]3)CCNC4=O)c2nc1Nc1ccccc1 [Example 183, 2-(2-methyl-3-(phenylamino)quinoxalin-5-yl)-6,7-dihydro-1H-pyrrolo[3,2-c]pyridin-4(5H)-one]
[1]
  IC50: 1.6 nM
[2]
  IC50: 1.5 nM
[3]; [4]
  IC50: 165 nM

## Cc1nc2cccc(-c3cc4c([nH]3)CCNC4=O)c2nc1NC1CCOCC1 [Example 127, 2-(2-methyl-3-((tetrahydro-2H-pyran-4-yl)amino)quinoxalin-5-yl)-6,7-dihydro-1H-pyrrolo[3,2-c]pyridin-4(5H)-one]
[1]
  IC50: 12.6 nM
[2]
  IC50: 17.1 nM
[3]; [4]
  IC50: 427 nM

## Cc1nc2cccc(-c3cc4c([nH]3)CCNC4=O)c2nc1NC(C)(C)C [Example 193, 2-(3-(tert-butylamino)-2-methylquinoxalin-5-yl)-6,7-dihydro-1H-pyrrolo[3,2-c]pyridin-4(5H)-one]
[1]
  IC50: 1.3 nM
[2]
  IC50: 1.1 nM
[3]; [4]
  IC50: 76.2 nM

## Cc1cccc(Nc2ccc3cccc(-c4cc5c([nH]4)CCNC5=O)c3n2)c1 [Example 44, 2-(2-((3-methylphenyl)amino)-8-quinolinyl)-1,5,6,7-tetrahydro-4H-pyrrolo[3,2-c]pyridin-4-one]
[1]
  IC50: 29.2 nM
[2]
  IC50: 7.2 nM
[3]; read-out: KMS-12-BM IC50 IP
  IC50: 13100 nM

## CCN(c1ccccc1)c1ccc2cccc(-c3cc4c([nH]3)CCNC4=O)c2n1 [Example 14, 2-(2-(ethyl(phenyl)amino)quinolin-8-yl)-6,7-dihydro-1H-pyrrolo[3,2-c]pyridin-4(5H)-one]
[1]
  IC50: 6 nM
[2]
  IC50: 1.1 nM
[3]; [4]
  IC50: 2340 nM

## Cc1nc2cccc(-c3cc4c([nH]3)CCNC4=O)c2nc1NC1CCCC1 [Example 130, 2-(3-(cyclopentylamino)-2-methylquinoxalin-5-yl)-6,7-dihydro-1H-pyrrolo[3,2-c]pyridin-4(5H)-one]
[1]
  IC50: 5.5 nM
[2]
  IC50: 5.8 nM
[3]; [4]
  IC50: 371 nM

## Nc1ccc(-c2ccc3cccc(-c4cc5c([nH]4)CCNC5=O)c3n2)c(F)n1 [Example 87, 2-(2-(6-amino-2-fluoropyridin-3-yl)quinolin-8-yl)-6,7-dihydro-1H-pyrrolo[3,2-c]pyridin-4(5H)-one]
[1]
  IC50: 14.7 nM
[2]
  IC50: 3.8 nM
[3]; [4]
  IC50: 1780 nM

## N[C@@H]1CCC[C@H](Nc2ccc3cccc(-c4cc5c([nH]4)CCNC5=O)c3n2)C1 (single isomer, unassigned) [Example 122, 2-(2-((cis-3-aminocyclohexyl)amino)quinolin-8-yl)-6,7-dihydro-1H-pyrrolo[3,2-c]pyridin-4(5H)-one]
[1]
  IC50: 0.3 nM
[2]
  IC50: 0.1 nM
[3]; [4]
  IC50: 348 nM

## O=C1NCCc2[nH]c(-c3cccc4ccc(Nc5ccc(Cl)cc5)nc34)cc21 [Example 15, 2-(2-((4-chlorophenyl)amino)quinolin-8-yl)-6,7-dihydro-1H-pyrrolo[3,2-c]pyridin-4(5H)-one]
[1]
  IC50: 20.4 nM
[2]
  IC50: 4 nM
[3]; read-out: KMS-12-BM IC50 IP
  IC50: 3230 nM

## O=C1NCCc2[nH]c(-c3cccc4ncc(Nc5ccccc5)nc34)cc21 [Example 180, 2-(3-(phenylamino)quinoxalin-5-yl)-6,7-dihydro-1H-pyrrolo[3,2-c]pyridin-4(5H)-one]
[1]
  IC50: 2.8 nM
[2]
  IC50: 1.9 nM
[3]; [4]
  IC50: 390 nM

## O=C1NCCc2[nH]c(-c3cccc4ccc(NC5CCCC5)nc34)cc21 [Example 78, 2-(2-(cyclopentylamino)quinolin-8-yl)-6,7-dihydro-1H-pyrrolo[3,2-c]pyridin-4(5H)-one]
[1]
  IC50: 19 nM
[2]
  IC50: 3.6 nM
[3]; [4]
  IC50: 5500 nM

## Nc1cccc(Nc2ccc3cccc(-c4cc5c([nH]4)CCNC5=O)c3n2)c1 [Example 110, 2-(2-((3-aminophenyl)amino)quinolin-8-yl)-6,7-dihydro-1H-pyrrolo[3,2-c]pyridin-4(5H)-one]
[1]
  IC50: 2.9 nM
[2]
  IC50: 1.1 nM
[3]; [4]
  IC50: 1130 nM

## N[C@H]1CCC[C@H](Nc2ccc3cccc(-c4cc5c([nH]4)CCNC5=O)c3n2)C1 (racemic) [Example 120, rac-2-(2-((trans-3-aminocyclohexyl)amino)quinolin-8-yl)-6,7-dihydro-1H-pyrrolo[3,2-c]pyridin-4(5H)-one]
[1]
  IC50: 4.6 nM
[2]
  IC50: 0.6 nM
[3]; [4]
  IC50: 2210 nM

## O=C1NCCc2[nH]c(-c3cccc4ncc(Oc5ccccc5)nc34)cc21 [Example 177, 2-(3-phenoxyquinoxalin-5-yl)-6,7-dihydro-1H-pyrrolo[3,2-c]pyridin-4(5H)-one]
[1]
  IC50: 18.4 nM
[2]
  IC50: 12.4 nM
[3]; [4]
  IC50: 4660 nM

## O=C1NCCc2[nH]c(-c3cccc4ccc(Oc5cccnc5)nc34)cc21 [Example 39, 2-(2-(3-pyridinyloxy)-8-quinolinyl)-1,5,6,7-tetrahydro-4H-pyrrolo[3,2-c]pyridin-4-one]
[1]
  IC50: 4.6 nM
[2]
  IC50: 6.3 nM
[3]; [4]
  IC50: 5380 nM

## O=C1NCCc2[nH]c(-c3cccc4ccc(Nc5cccnc5)nc34)cc21 [Example 38, 2-(2-(3-pyridinylamino)-8-quinolinyl)-1,5,6,7-tetrahydro-4H-pyrrolo[3,2-c]pyridin-4-one]
[1]
  IC50: 0.7 nM
[2]
  IC50: 0.3 nM
[3]; [4]
  IC50: 1290 nM

## CC1CNC(=O)c2cc(-c3cccc4ncc(Nc5ccccc5)nc34)[nH]c21 (racemic) [Example 187, rac-7-methyl-2-(3-(phenylamino)quinoxalin-5-yl)-6,7-dihydro-1H-pyrrolo[3,2-c]pyridin-4(5H)-one]
[1]
  IC50: 4.3 nM
[2]
  IC50: 1.9 nM
[3]; [4]
  IC50: 1280 nM
